Measured values published in patent US8802597B2, “Herbicidal pyrimidines” (E I du Pont de Nemours and Company, priority 2003, dated 2014).
Read-outs that look alike come from different tables or passages of the source.

Assays:
Format in all cases: in vivo
[1] = tested on: barnyardgrass (Echinochloa crus-galli); assay: Test A pre/postemergence; settings: Echinochloa crus-galli, 240 h, read-out: Plant response rating, Barnyardgrass; for pest or weed control at 125 g/ha: 125 g ai/ha; for pest or weed control at 500 g/ha: 500 g ai/ha
Method in brief: (§1)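 Compared with untreated controls, treated plants were visually rated for injury on a 0 (none) to 100 (complete control) scale about ten days after spraying. Pre- and postemergence applications used one solvent/surfactant formulation; postemergence plants measured 2–10 cm.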

[2] = tested on: crabgrass (Digitaria sanguinalis); assay: Test A pre/postemergence; settings: Digitaria sanguinalis, 240 h, read-out: Plant response rating, Crabgrass; for pest or weed control at 125 g/ha: 125 g ai/ha; for pest or weed control at 500 g/ha: 500 g ai/ha
Method in brief: as §1

[3] = tested on: giant foxtail (Setaria faberi); assay: Test A pre/postemergence; settings: Setaria faberi, 240 h, read-out: Plant response rating, Foxtail, Giant; for pest or weed control at 125 g/ha: 125 g ai/ha; for pest or weed control at 500 g/ha: 500 g ai/ha
Method in brief: as §1

[4] = tested on: morningglory (Ipomoea spp.); assay: Test A pre/postemergence; settings: Ipomoea, 240 h, read-out: Plant response rating, Morningglory; for pest or weed control at 125 g/ha: 125 g ai/ha; for pest or weed control at 500 g/ha: 500 g ai/ha
Method in brief: as §1

[5] = tested on: redroot pigweed (Amaranthus retroflexus); assay: Test A pre/postemergence; settings: Amaranthus retroflexus, 240 h, read-out: Plant response rating, Pigweed; for pest or weed control at 125 g/ha: 125 g ai/ha; for pest or weed control at 500 g/ha: 500 g ai/ha
Method in brief: as §1

[6] = tested on: velvetleaf (Abutilon theophrasti); assay: Test A pre/postemergence; settings: Abutilon theophrasti, 240 h, read-out: Plant response rating, Velvetleaf; for pest or weed control at 125 g/ha: 125 g ai/ha; for pest or weed control at 500 g/ha: 500 g ai/ha
Method in brief: as §1

[7] = tested on: cocklebur (Xanthium strumarium); assay: Test C pre/postemergence; settings: Xanthium strumarium; for pest or weed control at 16 g/ha: 16 g ai/ha; for pest or weed control at 31 g/ha: 31 g ai/ha; for pest or weed control at 62 g/ha: 62 g ai/ha; for pest or weed control at 125 g/ha: 125 g ai/ha
Method in brief: (§2)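 Greenhouse pot test: seeds treated preemergence, or plants at 2–18 cm (1- to 4-leaf stage) treated postemergence, with compound in non-phytotoxic solvent plus surfactant. Visual rating versus untreated controls after 12–14 days, scale 0 (no effect) to 100 (complete control); dash means not tested.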

[8] = tested on: crabgrass (Digitaria sanguinalis); assay: Test C pre/postemergence; settings: Digitaria sanguinalis; for pest or weed control at 16 g/ha: 16 g ai/ha; for pest or weed control at 31 g/ha: 31 g ai/ha; for pest or weed control at 62 g/ha: 62 g ai/ha; for pest or weed control at 125 g/ha: 125 g ai/ha
Method in brief: as §2

[9] = tested on: johnsongrass (Sorghum halepense); assay: Test C pre/postemergence; settings: Sorghum halepense; for pest or weed control at 16 g/ha: 16 g ai/ha; for pest or weed control at 31 g/ha: 31 g ai/ha; for pest or weed control at 62 g/ha: 62 g ai/ha; for pest or weed control at 125 g/ha: 125 g ai/ha
Method in brief: as §2

kochia (Kochia scoparia) = assay: Test C pre/postemergence; settings: Bassia scoparia; for pest or weed control at 16 g/ha: 16 g ai/ha; for pest or weed control at 31 g/ha: 31 g ai/ha; for pest or weed control at 62 g/ha: 62 g ai/ha; for pest or weed control at 125 g/ha: 125 g ai/ha
Method in brief: as §2

[10] = tested on: pigweed (Amaranthus retroflexus); assay: Test C pre/postemergence; settings: Amaranthus retroflexus; for pest or weed control at 16 g/ha: 16 g ai/ha; for pest or weed control at 31 g/ha: 31 g ai/ha; for pest or weed control at 62 g/ha: 62 g ai/ha
Method in brief: as §2

[11] = post-emergence, Postemergence, 0 to 100 scale (0 no effect, 100 complete control)
[12] = pre-emergence, Preemergence, 0 to 100 scale where 0 is no effect and 100 is complete control, approximately ten days
[13] = post-emergence, Postemergence, read-out: Plant response rating (scale of 0 to 100), Cocklebur
[14] = pre-emergence, Preemergence, scale 0 to 100, 0 no effect, 100 complete control, read-out: Plant response rating, Cocklebur
[15] = post-emergence, Postemergence, read-out: Plant response rating (scale of 0 to 100), Crabgrass
[16] = pre-emergence, Preemergence, scale 0 to 100, 0 no effect, 100 complete control, read-out: Plant response rating, Crabgrass
[17] = post-emergence, Postemergence, read-out: Plant response rating (scale of 0 to 100), Johnsongrass
[18] = pre-emergence, Preemergence, scale 0 to 100, 0 no effect, 100 complete control, read-out: Plant response rating, Johnsongrass
[19] = post-emergence, Postemergence, read-out: Plant response rating (scale of 0 to 100), Kochia
[20] = pre-emergence, Preemergence, scale 0 to 100, 0 no effect, 100 complete control, read-out: Plant response rating, Kochia
[21] = post-emergence, Postemergence, read-out: Plant response rating (scale of 0 to 100), Pigweed
[22] = pre-emergence, Preemergence, scale 0 to 100, 0 no effect, 100 complete control, read-out: Plant response rating, Pigweed

Structure (SMILES): Nc1nc(-c2ccc(Cl)cc2)nc(C(=O)O)c1Cl [Compound 65, 6-amino-5-chloro-2-(4-chlorophenyl)-4-pyrimidinecarboxylic acid]
- pest or weed control at 125 g/ha [1, 11]: 85%
- pest or weed control at 500 g/ha [1, 11]: 85%
- pest or weed control at 125 g/ha [1, 12]: 50%
- pest or weed control at 500 g/ha [1, 12]: 90%
- pest or weed control at 125 g/ha [2, 11]: 55%
- pest or weed control at 500 g/ha [2, 11]: 80%
- pest or weed control at 125 g/ha [2, 12]: 60%
- pest or weed control at 500 g/ha [2, 12]: 90%
- pest or weed control at 125 g/ha [3, 11]: 85%
- pest or weed control at 500 g/ha [3, 11]: 95%
- pest or weed control at 125 g/ha [3, 12]: 40%
- pest or weed control at 500 g/ha [3, 12]: 80%
- pest or weed control at 125 g/ha [4, 11]: 75%
- pest or weed control at 500 g/ha [4, 11]: 95%
- pest or weed control at 125 g/ha [4, 12]: 25%
- pest or weed control at 500 g/ha [4, 12]: 90%
- pest or weed control at 125 g/ha [5, 11]: 100%
- pest or weed control at 500 g/ha [5, 11]: 100%
- pest or weed control at 125 g/ha [5, 12]: 100%
- pest or weed control at 500 g/ha [5, 12]: 100%
- pest or weed control at 125 g/ha [6, 11]: 95%
- pest or weed control at 500 g/ha [6, 11]: 100%
- pest or weed control at 125 g/ha [6, 12]: 55%
- pest or weed control at 500 g/ha [6, 12]: 95%
- pest or weed control at 16 g/ha [7, 13]: 90%
- pest or weed control at 31 g/ha [7, 13]: 100%
- pest or weed control at 62 g/ha [7, 13]: 100%
- pest or weed control at 125 g/ha ([7]; post-emergence, Postemergence, scale 0 to 100 (0 no effect, 100 complete control), read-out: Cocklebur plant response rating): 100%
- pest or weed control at 16 g/ha [7, 14]: 0%
- pest or weed control at 31 g/ha [7, 14]: 30%
- pest or weed control at 62 g/ha [7, 14]: 50%
- pest or weed control at 125 g/ha ([7]; pre-emergence, Preemergence, scale 0 to 100, read-out: Plant response rating, Cocklebur): 90%
- pest or weed control at 16 g/ha [8, 15]: 80%
- pest or weed control at 31 g/ha [8, 15]: 80%
- pest or weed control at 62 g/ha [8, 15]: 90%
- pest or weed control at 125 g/ha ([8]; post-emergence, Postemergence, scale 0 to 100 (0 no effect, 100 complete control), read-out: Crabgrass plant response rating): 90%
- pest or weed control at 16 g/ha [8, 16]: 0%
- pest or weed control at 31 g/ha [8, 16]: 20%
- pest or weed control at 62 g/ha [8, 16]: 70%
- pest or weed control at 125 g/ha ([8]; pre-emergence, Preemergence, scale 0 to 100, read-out: Plant response rating, Crabgrass): 80%
- pest or weed control at 16 g/ha [9, 17]: 45%
- pest or weed control at 31 g/ha [9, 17]: 60%
- pest or weed control at 62 g/ha [9, 17]: 85%
- pest or weed control at 125 g/ha ([9]; post-emergence, Postemergence, scale 0 to 100 (0 no effect, 100 complete control), read-out: Johnsongrass plant response rating): 85%
- pest or weed control at 16 g/ha [9, 18]: 0%
- pest or weed control at 31 g/ha [9, 18]: 50%
- pest or weed control at 62 g/ha [9, 18]: 60%
- pest or weed control at 125 g/ha ([9]; pre-emergence, Preemergence, scale 0 to 100, read-out: Plant response rating, Johnsongrass): 70%
- pest or weed control at 16 g/ha (kochia (Kochia scoparia); [19]): 85%
- pest or weed control at 31 g/ha (kochia (Kochia scoparia); [19]): 85%
- pest or weed control at 62 g/ha (kochia (Kochia scoparia); [19]): 85%
- pest or weed control at 125 g/ha (kochia (Kochia scoparia); post-emergence, Postemergence, scale 0 to 100 (0 no effect, 100 complete control), read-out: Kochia plant response rating): 90%
- pest or weed control at 16 g/ha (kochia (Kochia scoparia); [20]): 0%
- pest or weed control at 31 g/ha (kochia (Kochia scoparia); [20]): 0%
- pest or weed control at 62 g/ha (kochia (Kochia scoparia); [20]): 50%
- pest or weed control at 125 g/ha (kochia (Kochia scoparia); pre-emergence, Preemergence, scale 0 to 100, read-out: Plant response rating, Kochia): 70%
- pest or weed control at 16 g/ha [10, 21]: 90%
- pest or weed control at 31 g/ha [10, 21]: 90%
- pest or weed control at 62 g/ha [10, 21]: 100%
- pest or weed control at 125 g/ha ([10]; post-emergence, Postemergence, 125 g ai/ha, scale 0 to 100 (0 no effect, 100 complete control), read-out: Pigweed plant response rating): 100%
- pest or weed control at 16 g/ha [10, 22]: 40%
- pest or weed control at 31 g/ha [10, 22]: 80%
- pest or weed control at 62 g/ha [10, 22]: 80%
